From patent US12611386B2, “Extended release pharmaceutical formulation” (Douglas Pharmaceuticals Ltd., priority 2020, dated 2026)
Read-outs that look alike come from different tables or passages of the source.

What was measured:
[1] = tested on: patients with treatment-resistant depression and/or treatment-resistant anxiety (TRD/TRA); assay: Study ZPS-603 Cohort 4: mood ratings (HAMA, FQ, MADRS), open label multiple ascending dose; format: in vivo, human; details: injected drug in earlier treatment (FIG. 7)
Experimental: The objective of Cohort 4 was to evaluate efficacy, safety, PK and PD of an extended release ketamine oral formulation in patients with treatment-resistant depression and/or treatment-resistant anxiety (TRD/TRA). […] The design was an open label multiple ascending dose study. The initial dose was 60 mg, and could be escalated by an additional 60 mg 12 hourly, based on assessment of mood symptoms, to a maximum dose of 240 mg, with a total of 7 doses given 12 hourly between 0 and 72 hours. Endpoints included safety, tolerability, ketamine and norketamine PK, and PD (mood ratings including the Fear Questionnaire (FQ; Marks 1979), HAMA and MADRS, and dissociative symptom rating scale scores).

TRD patients = details: Singh et al. 2016, cited from earlier work
[2] = injected by any route of administration (e.g. Loo 2016); cited from earlier work

CNC1(c2ccccc2Cl)CCCCC1=O (stereo not shown) [IV ketamine, 2-(2-chlorophenyl)-2-(methylamino)cyclohexan-1-one]
onset of improvement of anxiety symptoms [1]: 1 to 2 h
TRD patients remitted (TRD patients; 0.5 mg/kg IV thrice weekly): 23.1%
TRD patients remitted (TRD patients; 0.5 mg/kg IV twice weekly for 15 days): 37.5%
duration of marked dissociative symptoms after dosing [2]: up to 60 minutes
